Results on 1 molecule are retold here after patent publication US20160150792A1, “WATER PURIFICATION COMPOSITIONS AND APPLICATIONS FOR SAME” (priority 2011, published 2016).

The subject of this assay is mixture of E. coli and P. aeruginosa. In words: Disinfection of contaminated surgical instruments and objects. Conditions: immersion 30 minutes; instruments contaminated with 7.0×10^9 bacteria. It is filed as cell-based, E. coli (ATCC 11229) and P. aeruginosa (ATCC 15442). How it is done:
Cultures: E. coli (ATCC11229) and P. aeruginosa (ATCC15442) from the American Type Culture Collection (ATCC) were grown in Tryptic Soy Broth (TSB) according to the instructions provided by ATCC.
Sterile surgical instruments (probes, scalpel handles, and forceps) and other objects were inoculated with 20 μL of the concentrated culture and allowed to dry for 30 minutes in a laminar flow hood. Contaminated surgical instruments were treated with SAFI (various copper or copper/zinc mixes at pH 3.2 or pH 0.2) by immersing the objects in 40 mL sterile water containing 1, 10, or 100 ppm SAFI for time periods of 30 minutes −22 hours. Comparison treatments included no treatment (control), boiling the instruments in water for 30 minutes, immersing the instruments in 40 mL of 70% EtOH for 30 minutes, or autoclaving the instruments at 15 lbs/in^2 at 121° C. for 20 minutes. […]
The ability of a solution of SAFI to disinfect contaminated surgical instruments was determined by contaminating forceps, scalpel handles, and probes with 20 uL of a concentrated mixture of E. coli and P. aeruginosa and incubating the contaminated instruments in a SAFI solution for 30 minutes. […] Bacteria present after overnight incubation were determined by standard plate counts. […]

Take `CCO` [70% ethanol, ethanol]: the “effectiveness in killing bacteria (comparison treatment)” value was “effective in killing bacteria”.
